Measured values taken from US6362212B1, “Oxime derivative and bactericide containing the same as active ingredient” (Shionogi & Company, Ltd., priority 1994, dated 2002).

Columns and labels:
Type in all cases: in vivo
Pyricularia oryzae = settings: foliage spray on rice seedlings (cv. […]), number of lesions six days after the inoculation
Sphaerotheca fuliginea = assay: Controlling effect on Sphaerotheca fuliginea by foliage application (pot experiment); settings: foliage spray on cucumber (cv. TSUKUBASHIROIBO) first leaves, infected area after 10 days in greenhouse at 20° C.
In short: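 First leaves of cucumber seedlings, 2-3 weeks old, were sprayed with compound (DMF solution diluted in water with spreader). They were inoculated 24 h later with a Sphaerotheca fuliginea conidia spray and kept 10 days at 20° C in a greenhouse. Percent control was calculated from infected leaf area.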

Botrytis cinerea = assay: Controlling effect on Botrytis cinerea by foliage application (pot experiment); settings: foliage spray on cucumber (cv. TSUKUBASHIROIBO) first leaves, mycelial disks, lesion diameter after 3 days in moist chamber at 20° C.
Description: The following Test Examples illustrate the effects of the fungicide of the present invention. (I. Controlling effects on various plant diseases by foliage application (pot experiment)) A test compound was dissolved in a small amount of N,N-dimethylformamide, and the solution was diluted to a given concentration with distilled water containing a spreader. Thus, a liquid sample to be tested was prepared. The liquid sample was sprayed to test plants, and 24 hours thereafter, pathogens were inoculated by the method described below. […] The seeds of cucumber ([…]) were sown in plastic cups (each 9 cm in diameter), followed by cultivation for 2 to 3 weeks. The test compound in the form of a solution or suspension was sprayed to the surface of their first leaves, and mycelial disks (4 mm φ) of Botrytis cinerea cultured on the potato sucrose agar medium were put on the leaf surfaces to inoculate. the cucumber seedlings with the pathogen. The plants were kept in a moist chamber at 20° C. for 3 days. The diameter of the lesions on the leaves was measured and the percent control was calculated.

[1] = tested on: Erysiphe graminis f. sp. tritici; assay: Controlling effect on Erysiphe graminis f. sp. tritici by foliage application (pot experiment); settings: foliage spray on wheat (cv. NORIN No. 61) seedlings, infected area after 10 days in greenhouse at 20° C.
In short: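 Wheat seedlings (cv. NORIN No. 61, 2-3 weeks old) sprayed with compound in DMF diluted in water with spreader, then inoculated with conidia 24 hours later. Kept in greenhouse at 20 °C for 10 days; percent control calculated from infected leaf area.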

[2] = tested on: Pseudoperonospora cubensis; assay: Controlling effect on Pseudoperonospora cubensis by foliage application (pot experiment); settings: foliage spray on cucumber (var. TSUKUBASHIROIBO) first leaves, lesion area after 10 days in moist chamber at 20° C.
In short: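 Cucumber plants grown 2–3 weeks were sprayed on first leaves with compound (DMF solution diluted in water with spreader); 24 h later, Pseudoperonospora cubensis zoosporangia suspension dropped on leaves. Plants held in moist chamber at 20° C for 10 days; lesion area observed and percent control calculated.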

Puccinia coronata = assay: Controlling effect on Puccinia coronata by foliage application (pot experiment); settings: foliage spray on oat (cv. PC-38) seedlings, infected area after 1 day moist chamber and 8 days greenhouse at 20° C.
Description: The following Test Examples illustrate the effects of the fungicide of the present invention. (I. Controlling effects on various plant diseases by foliage application (pot experiment)) A test compound was dissolved in a small amount of N,N-dimethylformamide, and the solution was diluted to a given concentration with distilled water containing a spreader. Thus, a liquid sample to be tested was prepared. The liquid sample was sprayed to test plants, and 24 hours thereafter, pathogens were inoculated by the method described below. […] The seeds of oat (cv.: PC-38) were sown in plastic cups (each 9 cm in diameter), followed by cultivation for 2 to 3 weeks. The test compound in the form of a solution or suspension was sprayed to the seedlings. Spores of Puccinia coronata cultured on oat leaves were collected, diluted about 10-fold with talc, and sprayed to the test plants to inoculate the plants with the pathogen. After the inoculation, the plants were kept in a moist chamber at 20° C. for 1 day and then in a greenhouse at 20° C. for 8 days. The infected area on the leaf was observed, and the percent control was calculated.

With `CON=C(c1ccccc1COc1cccc(C(F)(F)F)c1)c1nccn1C` (single isomer, unassigned) [122A] the “Controlling effect on PYricularia orYzae by foliage application at 500 ppm (percent control)” value (Pyricularia oryzae) was 97 percent control, the “Controlling effect on Sphaerotheca fuliginea by foliage application at 500 ppm (percent control)” value (Sphaerotheca fuliginea) was 100 percent control and the “Controlling effect on Botrytis cinerea by foliage application at 500 ppm (percent control)” value (Botrytis cinerea) was 70 percent control. The “Controlling effect on ErYsiphe graminis f. sp. tritici by foliage application at 500 ppm (percent control)” value [1] was 97 percent control and the “Controlling effect on Pseudoperonospora cubensis by foliage application at 500 ppm (percent control)” value [2] was 100 percent control.

With `CON=C(c1ccccc1COc1ccc(Cl)cc1C)c1nccn1C` (single isomer, unassigned) [141A] the “Controlling effect on PYricularia orYzae by foliage application at 500 ppm (percent control)” value (Pyricularia oryzae) was 70 percent control, the “Controlling effect on Sphaerotheca fuliginea by foliage application at 500 ppm (percent control)” value (Sphaerotheca fuliginea) was 100 percent control and the “Controlling effect on Botrytis cinerea by foliage application at 500 ppm (percent control)” value (Botrytis cinerea) was 90 percent control. The “Controlling effect on ErYsiphe graminis f. sp. tritici by foliage application at 500 ppm (percent control)” value [1] was 90 percent control and the “Controlling effect on Pseudoperonospora cubensis by foliage application at 500 ppm (percent control)” value [2] was 100 percent control.

For `CON=C(c1cc(C)no1)c1ccccc1COc1ccccc1Cl` (single isomer, unassigned) [605A], the “Controlling effect on PYricularia orYzae by foliage application at 500 ppm (percent control)” value (Pyricularia oryzae) was 90 percent control, the “Controlling effect on Sphaerotheca fuliginea by foliage application at 500 ppm (percent control)” value (Sphaerotheca fuliginea) was 100 percent control and the “Controlling effect on Botrytis cinerea by foliage application at 500 ppm (percent control)” value (Botrytis cinerea) was 70 percent control. The “Controlling effect on ErYsiphe graminis f. sp. tritici by foliage application at 500 ppm (percent control)” value [1] was 90 percent control and the “Controlling effect on Pseudoperonospora cubensis by foliage application at 500 ppm (percent control)” value [2] was 100 percent control.

In the case of `CON=C(c1nnco1)c1ccccc1COc1cccc(C)c1` [compound 713], the “Controlling effect on PYricularia orYzae by foliage application at 500 ppm (percent control)” value (Pyricularia oryzae) is reported as 97 percent control, the “Controlling effect on Sphaerotheca fuliginea by foliage application at 500 ppm (percent control)” value (Sphaerotheca fuliginea) is reported as 100 percent control and the “Controlling effect on Botrytis cinerea by foliage application at 500 ppm (percent control)” value (Botrytis cinerea) is reported as 70 percent control. For the same molecule, the “Controlling effect on ErYsiphe graminis f. sp. tritici by foliage application at 500 ppm (percent control)” value [1] was 90 percent control and the “Controlling effect on Pseudoperonospora cubensis by foliage application at 500 ppm (percent control)” value [2] was 100 percent control.

With `CON=C(c1ccon1)c1ccccc1COc1ccc(C)cc1` (mixture of isomers) [compound 314] the “Controlling effect on PYricularia orYzae by foliage application at 500 ppm (percent control)” value (Pyricularia oryzae) was 90 percent control, the “Controlling effect on Sphaerotheca fuliginea by foliage application at 500 ppm (percent control)” value (Sphaerotheca fuliginea) was 100 percent control and the “Controlling effect on Botrytis cinerea by foliage application at 500 ppm (percent control)” value (Botrytis cinerea) was 70 percent control. The “Controlling effect on ErYsiphe graminis f. sp. tritici by foliage application at 500 ppm (percent control)” value [1] was 70 percent control and the “Controlling effect on Pseudoperonospora cubensis by foliage application at 500 ppm (percent control)” value [2] was 100 percent control.

In the case of `CON=C(c1ccccc1COc1cccc(Cl)c1)c1nccn1C` (single isomer, unassigned) [106A], the “Controlling effect on PYricularia orYzae by foliage application at 500 ppm (percent control)” value (Pyricularia oryzae) is reported as 97 percent control, the “Controlling effect on Sphaerotheca fuliginea by foliage application at 500 ppm (percent control)” value (Sphaerotheca fuliginea) is reported as 100 percent control and the “Controlling effect on Botrytis cinerea by foliage application at 500 ppm (percent control)” value (Botrytis cinerea) is reported as 70 percent control. The “Controlling effect on ErYsiphe graminis f. sp. tritici by foliage application at 500 ppm (percent control)” value [1] was 70 percent control and the “Controlling effect on Pseudoperonospora cubensis by foliage application at 500 ppm (percent control)” value [2] was 100 percent control.

`CON=C(c1ncon1)c1ccccc1COc1ccccc1` [compound 801] was tested, and the “Controlling effect on PYricularia orYzae by foliage application at 500 ppm (percent control)” value (Pyricularia oryzae) was 70 percent control, the “Controlling effect on Sphaerotheca fuliginea by foliage application at 500 ppm (percent control)” value (Sphaerotheca fuliginea) was 100 percent control and the “Controlling effect on ErYsiphe graminis f. sp. tritici by foliage application at 500 ppm (percent control)” value [1] was 90 percent control. The “Controllng effect on Puccinia coronata by foliage application at 500 ppm (percent control)” value (“Controllng effect … (percent control)” for short) (Puccinia coronata) was 97 percent control and the “Controlling effect on Pseudoperonospora cubensis by foliage application at 500 ppm (percent control)” value [2] was 100 percent control.

`CON=C(c1cc(C)no1)c1ccccc1COc1ccc(Cl)cc1` (single isomer, unassigned) [607A] was tested, and the “Controlling effect on PYricularia orYzae by foliage application at 500 ppm (percent control)” value (Pyricularia oryzae) was 90 percent control, the “Controlling effect on Sphaerotheca fuliginea by foliage application at 500 ppm (percent control)” value (Sphaerotheca fuliginea) was 90 percent control and the “Controlling effect on Botrytis cinerea by foliage application at 500 ppm (percent control)” value (Botrytis cinerea) was 70 percent control. For the same molecule, the “Controlling effect on ErYsiphe graminis f. sp. tritici by foliage application at 500 ppm (percent control)” value [1] was 90 percent control and the “Controlling effect on Pseudoperonospora cubensis by foliage application at 500 ppm (percent control)” value [2] was 97 percent control.

In the case of `CON=C(c1ccccc1COc1ccc(-c2ccccc2)cc1)c1nccn1C` (single isomer, unassigned) [144A], the “Controlling effect on Sphaerotheca fuliginea by foliage application at 500 ppm (percent control)” value (Sphaerotheca fuliginea) is reported as 100 percent control, the “Controlling effect on Botrytis cinerea by foliage application at 500 ppm (percent control)” value (Botrytis cinerea) is reported as 70 percent control and the “Controlling effect on Pseudoperonospora cubensis by foliage application at 500 ppm (percent control)” value [2] is reported as 100 percent control.

In the case of `CON=C(c1nnco1)c1ccccc1COc1cccc(C(F)(F)F)c1` [compound 722], the “Controlling effect on PYricularia orYzae by foliage application at 500 ppm (percent control)” value (Pyricularia oryzae) is reported as 90 percent control, the “Controlling effect on Sphaerotheca fuliginea by foliage application at 500 ppm (percent control)” value (Sphaerotheca fuliginea) is reported as 100 percent control and the “Controlling effect on ErYsiphe graminis f. sp. tritici by foliage application at 500 ppm (percent control)” value [1] is reported as 90 percent control. For the same molecule, the “Controllng effect … (percent control)” value (Puccinia coronata) was 97 percent control and the “Controlling effect on Pseudoperonospora cubensis by foliage application at 500 ppm (percent control)” value [2] was 100 percent control.

In the case of `CON=C(c1ccccc1COc1ccccc1C)c1nccn1C` (single isomer, unassigned) [112A], the “Controlling effect on PYricularia orYzae by foliage application at 500 ppm (percent control)” value (Pyricularia oryzae) is reported as 97 percent control, the “Controlling effect on Sphaerotheca fuliginea by foliage application at 500 ppm (percent control)” value (Sphaerotheca fuliginea) is reported as 100 percent control and the “Controlling effect on ErYsiphe graminis f. sp. tritici by foliage application at 500 ppm (percent control)” value [1] is reported as 100 percent control. For the same molecule, the “Controllng effect … (percent control)” value (Puccinia coronata) was 100 percent control and the “Controlling effect on Pseudoperonospora cubensis by foliage application at 500 ppm (percent control)” value [2] was 97 percent control.

In the case of `CON=C(c1cnco1)c1ccccc1COc1ccccc1` (mixture of isomers) [compound 1721], the “Controlling effect on Sphaerotheca fuliginea by foliage application at 500 ppm (percent control)” value (Sphaerotheca fuliginea) is reported as 100 percent control, the “Controlling effect on ErYsiphe graminis f. sp. tritici by foliage application at 500 ppm (percent control)” value [1] is reported as 90 percent control and the “Controllng effect … (percent control)” value (Puccinia coronata) is reported as 70 percent control. For the same molecule, the “Controlling effect on Pseudoperonospora cubensis by foliage application at 500 ppm (percent control)” value [2] was 100 percent control.

In the case of `CON=C(c1ccccc1COc1ccc(Cl)cc1Cl)c1nccn1C` (single isomer, unassigned) [130A], the “Controlling effect on Sphaerotheca fuliginea by foliage application at 500 ppm (percent control)” value (Sphaerotheca fuliginea) is reported as 100 percent control, the “Controlling effect on Botrytis cinerea by foliage application at 500 ppm (percent control)” value (Botrytis cinerea) is reported as 70 percent control and the “Controlling effect on Pseudoperonospora cubensis by foliage application at 500 ppm (percent control)” value [2] is reported as 100 percent control.

For `CON=C(c1cc(C)no1)c1ccccc1COc1ccccc1C` (single isomer, unassigned) [612A], the “Controlling effect on PYricularia orYzae by foliage application at 500 ppm (percent control)” value (Pyricularia oryzae) was 90 percent control, the “Controlling effect on Sphaerotheca fuliginea by foliage application at 500 ppm (percent control)” value (Sphaerotheca fuliginea) was 97 percent control and the “Controlling effect on ErYsiphe graminis f. sp. tritici by foliage application at 500 ppm (percent control)” value [1] was 100 percent control. The “Controllng effect … (percent control)” value (Puccinia coronata) was 97 percent control and the “Controlling effect on Pseudoperonospora cubensis by foliage application at 500 ppm (percent control)” value [2] was 100 percent control.

`CON=C(c1ccno1)c1ccccc1COc1cc(C)ccc1C` (single isomer, unassigned) [536B] was tested, and the “Controlling effect on PYricularia orYzae by foliage application at 500 ppm (percent control)” value (Pyricularia oryzae) was 70 percent control, the “Controlling effect on Sphaerotheca fuliginea by foliage application at 500 ppm (percent control)” value (Sphaerotheca fuliginea) was 90 percent control and the “Controlling effect on ErYsiphe graminis f. sp. tritici by foliage application at 500 ppm (percent control)” value [1] was 100 percent control. The “Controllng effect … (percent control)” value (Puccinia coronata) was 97 percent control and the “Controlling effect on Pseudoperonospora cubensis by foliage application at 500 ppm (percent control)” value [2] was 100 percent control.
